IC50 data for 24 compounds are collected here from ChEMBL document CHEMBL6153083, “Synthesis, Structural Modification, and Antismall Cell Lung Cancer Activity of 3-Arylisoquinolines with Dual Inhibitory Activity on Topoisomerase I and II” (J Med Chem, 2025).

A short description of series [1]: Antiproliferative activity against human NCI-H196 cells incubated for 72 hrs. Type of series: functional, cell-based. The note with it: NCI-H196, 72 h.
In series [2] the test system is NCI-H446. In words: Antiproliferative activity against human NCI-H446 cells incubated for 72 hrs. The note with it: NCI-H446, 72 h. Type of series: functional, cell-based.
Series [3] has as its system NCI-H146. Nature of the series: Antiproliferative activity against human NCI-H146 cells incubated for 72 hrs. Type of series: functional, cell-based. The note with it: NCI-H146, 72 h.
In series [4] the test system is NCI-H209. In words: Antiproliferative activity against human NCI-H209 cells incubated for 72 hrs. Format: functional, cell-based. The note with it: NCI-H209, 72 h.
For series [5], the system named is SHP77. In words: Antiproliferative activity against human SHP77 cells incubated for 72 hrs. Format: functional, cell-based. The note with it: SHP77, 72 h.
The nature of series [6]: Antiproliferative activity against human BEAS-2B cells incubated for 72 hrs. Type of series: toxicity, cell-based.
A short description of series [7]: Antiproliferative activity against human L02 cells incubated for 72 hrs. Format: toxicity, cell-based.
The test system of series [8] is NCI-H82. Nature of the series: Antiproliferative activity against human NCI-H82 cells incubated for 72 hrs. Format: functional, cell-based. Particulars: NCI-H82, 72 h.
The subject of series [9] is NCI-H1048. In words: Antiproliferative activity against human NCI-H1048 cells incubated for 72 hrs. Format: functional, cell-based. The note with it: NCI-H1048, 72 h.

Turning to `ClC1CCN(Cc2cc3c(cc2-c2cc4ccc5c(c4cn2)OCO5)OCO3)CC1`, the IC50 in series [1] is 62.4 µM; in [2], 38.2 µM; in series [3], over 100 µM; in [4], over 100 µM; in [5], over 100 µM; in [8], over 100 µM. The IC50 in series [9] was over 100 µM. Also, the IC50 at 72 h in series [6] and in series [7] was over 100 µM each time.

As to `COC(=O)C1CCN(Cc2cc3c(cc2-c2cc4ccc5c(c4cn2)OCO5)OCO3)CC1`, the 50% inhibitory concentration (IC50) was over 100 µM in [1]; 65.6 µM in [2]; over 100 µM in [3]; over 100 µM in series [4]; over 100 µM in [5]; over 100 µM in series [8]. The compound further displayed an IC50 in series [9] of 60.6 µM. In [6], this compound came in with an IC50 at 72 h of 77.5 µM.

As to `OCCCC1CCN(Cc2cc3c(cc2-c2cc4ccc5c(c4cn2)OCO5)OCO3)CC1`, the IC50 in series [1] was 28.2 µM; in series [2], 19.5 µM; in series [3], 21.1 µM; in [4], 68.5 µM; in series [5], 26.3 µM; in [8] it was 41.1 µM. In addition, the IC50 in [9] was found to be 24.4 µM. In addition, the IC50 at 72 h is 24.8 µM in series [6] and 52.2 µM in series [7].

On to `CC1CCN1Cc1cc2c(cc1-c1cc3ccc4c(c3cn1)OCO4)OCO2` (centres undefined), for which the IC50 was found to be 46.3 µM in [1]; 48.8 µM in series [2]; 48.8 µM in series [4]; 42.6 µM in [5]; 56.2 µM in series [8]; 42.3 µM in series [9]. Moreover, the IC50 at 72 h in series [6] worked out at 27.7 µM; in [7], 33.8 µM.

Turning to `FC1(F)CCCN(Cc2cc3c(cc2-c2cc4ccc5c(c4cn2)OCO5)OCO3)CC1`, the IC50 is 56.4 µM in series [1]; 39.3 µM in series [2]; 45 µM in series [4]; 31.3 µM in series [5]; 31.3 µM in [8]; 19.1 µM in series [9]. The IC50 at 72 h in series [6] amounted to 24.2 µM; in series [7], 36.6 µM.

Regarding `CC1(F)CN(Cc2cc3c(cc2-c2cc4ccc5c(c4cn2)OCO5)OCO3)C1`, the half-inhibitory concentration (IC50) in series [1] was over 100 µM; in series [2], 38.5 µM; in series [4], over 100 µM; in series [5], over 100 µM; in series [8] it was over 100 µM; in series [9] it was over 100 µM. Also, the concentration for half-maximal inhibition (IC50) at 72 h in [6] and in series [7] was over 100 µM in each case.

In the case of `CCC1CCCCN1Cc1cc2c(cc1-c1cc3ccc4c(c3cn1)OCO4)OCO2` (centres undefined), the IC50 turned out to be 17.1 µM in series [1]; 16.9 µM in series [2]; 33.1 µM in series [3]; 25.4 µM in [4]; 20.8 µM in series [5]; 15.9 µM in series [8]. Also, inhibition in [9] was half-maximal at 13.4 µM (IC50). Moreover, the IC50 at 72 h in series [6] amounted to 20.7 µM; in series [7], 22.6 µM.

Regarding `c1c(CN2CCC(C3CC3)CC2)c(-c2cc3ccc4c(c3cn2)OCO4)cc2c1OCO2`, the IC50 was over 100 µM in [1]; 15.5 µM in [2]; 37.8 µM in [3]; over 100 µM in [4]; over 100 µM in series [5]; over 100 µM in [8]. Further, the IC50 in series [9] was over 100 µM. Besides, the values for the concentration for half-maximal inhibition (IC50) at 72 h in series [6] and in [7] were over 100 µM and 83.6 µM, respectively.

As for `CCC(=O)C1CCN(Cc2cc3c(cc2-c2cc4ccc5c(c4cn2)OCO5)OCO3)CC1`, the IC50 in [1] was 34.5 µM; in series [2], 21.2 µM; in series [3], 42.6 µM; in series [4] it was over 100 µM; in [5] it was 26.5 µM; in series [8] it was 48.8 µM. Moreover, the IC50 in series [9] is over 100 µM. Also, the IC50 at 72 h in [6] was over 100 µM; in series [7] it was 41.7 µM.

In the case of `c1c(CN2CC3(CCCCC3)C2)c(-c2cc3ccc4c(c3cn2)OCO4)cc2c1OCO2`, the IC50 in series [1] turned out to be 30.6 µM; in series [2], 13.8 µM; in [3] it was 15.5 µM; in series [4], 31.8 µM; in [5], 23.6 µM; in series [8], 12.4 µM. This compound also gave an IC50 in series [9] of 12.9 µM. For the same compound, the half-inhibitory concentration (IC50) at 72 h in series [6] was found to be 12.6 µM; in series [7], 41.5 µM.

As to `c1c(CN2CCCCCCC2)c(-c2cc3ccc4c(c3cn2)OCO4)cc2c1OCO2`, the IC50 in series [1] came out at 10.9 µM; in [2], 1.48 µM; in [3], 15.1 µM; in series [4] it was 26.8 µM; in series [5] it was 5.09 µM; in series [8] it was 10.2 µM. The compound further had an IC50 in series [9] of 5.17 µM. The IC50 at 72 h in series [6] was 24.3 µM; in series [7] it was 23 µM.

For the compound `NC(=O)C1CCN(Cc2cc3c(cc2-c2cc4ccc5c(c4cn2)OCO5)OCO3)CC1`, the IC50 in [1] is 57.7 µM; in [2], 74.1 µM; in series [3], over 100 µM; in series [4] it was 77 µM; in series [5] it was 41.5 µM; in series [8], 63.4 µM. In series [9], half-maximal inhibition (IC50) was put at 38.6 µM. Further, the IC50 at 72 h in series [6] amounted to 28.8 µM; in series [7], 25.1 µM.

Take `OCC1CCN(Cc2cc3c(cc2-c2cc4ccc5c(c4cn2)OCO5)OCO3)C1` (centres undefined): the IC50 in series [1] was determined as 36 µM; in [2] it was 68.4 µM; in series [3], 17.1 µM; in series [4] it was 56.6 µM; in series [5], 32.9 µM; in series [8], 61.5 µM. This compound also showed an IC50 in [9] of 34.6 µM. Further, the IC50 at 72 h was found to be 26.2 µM in series [6] and 43.2 µM in [7].

On to `CC(=O)C1CCN(Cc2cc3c(cc2-c2cc4ccc5c(c4cn2)OCO5)OCO3)CC1`, for which the IC50 was 51.5 µM in series [1]; 49.2 µM in series [2]; over 100 µM in [3]; over 100 µM in [4]; 93.9 µM in series [5]; over 100 µM in [8]. In addition, the IC50 in series [9] is over 100 µM. Moreover, the IC50 at 72 h in series [6] and in series [7] was over 100 µM each time.

As to `c1c(CN2CC3CC3C2)c(-c2cc3ccc4c(c3cn2)OCO4)cc2c1OCO2` (centres undefined), the IC50 in series [1] is 38.9 µM; in series [2], 18.7 µM; in series [3], over 100 µM; in series [4], 52.7 µM; in series [5], 21.3 µM; in series [8], 29.1 µM. Further, half-maximal inhibition in series [9] (IC50) was put at 16.8 µM. Besides, the IC50 at 72 h in [6] amounted to 23.7 µM; in series [7] it was 26.8 µM.

In the case of `FC1(F)C2CCN(Cc3cc4c(cc3-c3cc5ccc6c(c5cn3)OCO6)OCO4)CC21` (centres undefined), the IC50 in [1] is 27.4 µM; in [2], 11.1 µM; in series [3] it was 12.8 µM; in [4], 30.9 µM; in series [5], 15.8 µM; in [8], 44.2 µM. For the same compound, it took 21.5 µM to reach half-maximal inhibition in series [9] (IC50). The IC50 at 72 h in series [6] is 10.3 µM; in [7], 77.6 µM.

In the case of `CC1(CO)CCN(Cc2cc3c(cc2-c2cc4ccc5c(c4cn2)OCO5)OCO3)CC1`, the IC50 was determined as 40.5 µM in series [1]; 65.8 µM in [2]; 70.3 µM in series [3]; 82.6 µM in [4]; 22.6 µM in [5]; 56.9 µM in series [8]. This compound also gave an IC50 in [9] of 29.8 µM. Also, the figures for the IC50 at 72 h in [6] and in series [7] were 21.2 µM and 37.9 µM, respectively.

For the compound `c1c(CN2CC3CCC(C2)O3)c(-c2cc3ccc4c(c3cn2)OCO4)cc2c1OCO2`, the IC50 in series [1] was 31.3 µM; in series [2] it was 20.6 µM; in series [3], over 100 µM; in series [4], 46.5 µM; in [5], 30.8 µM. In addition, the figures for the IC50 at 72 h in [6] and in series [7] were 57.3 µM and over 100 µM, respectively.

In the case of `FC1CN(Cc2cc3c(cc2-c2cc4ccc5c(c4cn2)OCO5)OCO3)C1`, the IC50 is over 100 µM in [1]; 49.8 µM in series [2]; over 100 µM in series [4]; 44.9 µM in series [5]; over 100 µM in series [8]; 74.1 µM in series [9]. Moreover, the results for the IC50 at 72 h in series [6] and in series [7] were 75.6 µM and 59 µM, respectively.

As for `c1c(CN2CCCCCC2)c(-c2cc3ccc4c(c3cn2)OCO4)cc2c1OCO2`, the IC50 in series [1] turned out to be 24.3 µM; in series [2] it was 15.2 µM; in series [4] it was 39.5 µM; in [5], 18 µM; in series [8] it was 16.9 µM; in series [9] it was 15.4 µM. In addition, the IC50 at 72 h was determined as 12.3 µM in series [6] and 14.4 µM in series [7].

As to `CN1CCCN(Cc2cc3c(cc2-c2cc4ccc5c(c4cn2)OCO5)OCO3)CC1`, the IC50 is 19.8 µM in series [1]; 10.4 µM in series [2]; over 50 µM in [4]; 22.3 µM in [5]; 6.49 µM in series [8]; 32.1 µM in series [9]. For the same compound, the IC50 at 72 h in [6] and in series [7] was over 100 µM in each case.

On to `FC1CCCN(Cc2cc3c(cc2-c2cc4ccc5c(c4cn2)OCO5)OCO3)CC1` (centres undefined), for which the IC50 in series [1] is 35.7 µM; in series [2], 20.6 µM; in series [4], 58.3 µM; in series [5], 42.4 µM; in series [8] it was 37.8 µM; in [9], 17.7 µM. Moreover, the IC50 at 72 h is 33.7 µM in series [6] and over 100 µM in series [7].

On to `COc1ccc2cc3[n+](cc2c1OC)CCc1cc2c(cc1-3)OCO2` [BERBERINE], for which the IC50 in series [1] is over 100 µM; in [2], 78.6 µM; in series [3], over 100 µM; in series [4], 65 µM; in series [5], over 100 µM; in series [9] it was over 100 µM. Further, the IC50 at 72 h in series [6] and in series [7] was over 100 µM in each case.

On to `CC(C)C1CCCCCN1Cc1cc2c(cc1-c1cc3ccc4c(c3cn1)OCO4)OCO2` (centres undefined), for which the IC50 in series [1] turned out to be 17.9 µM; in series [2] it was 1.22 µM; in series [4], 18.1 µM; in [5], 8.23 µM; in series [8] it was 1.72 µM; in [9], 18.1 µM. Moreover, the IC50 at 72 h in series [6] is 26.5 µM; in series [7], 20.5 µM.
